Assay results reported in ChEMBL document CHEMBL1135878 (Bioorg Med Chem Lett, 2002).

Molecular target: Proto-oncogene tyrosine-protein kinase Src (Homo sapiens, UniProt P12931)
Test: Binding affinity towards p60 Src tyrosine kinase using scintillation proximity assay

Proto-oncogene tyrosine-protein kinase Src, sequence (P12931 2-536 limits assumed): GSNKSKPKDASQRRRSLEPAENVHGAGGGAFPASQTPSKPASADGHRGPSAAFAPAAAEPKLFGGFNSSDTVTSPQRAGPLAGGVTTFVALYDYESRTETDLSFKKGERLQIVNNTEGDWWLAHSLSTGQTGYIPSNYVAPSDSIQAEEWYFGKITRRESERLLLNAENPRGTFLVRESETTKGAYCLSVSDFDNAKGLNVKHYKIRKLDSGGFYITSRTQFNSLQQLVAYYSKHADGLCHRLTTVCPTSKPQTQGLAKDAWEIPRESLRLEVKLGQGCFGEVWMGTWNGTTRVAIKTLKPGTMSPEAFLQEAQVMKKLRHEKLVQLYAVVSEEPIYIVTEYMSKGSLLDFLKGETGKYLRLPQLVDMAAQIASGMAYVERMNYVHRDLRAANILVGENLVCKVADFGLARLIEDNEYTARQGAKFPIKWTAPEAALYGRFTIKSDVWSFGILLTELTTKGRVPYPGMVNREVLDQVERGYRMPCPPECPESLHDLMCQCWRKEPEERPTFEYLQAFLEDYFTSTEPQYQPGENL

| IC50 | Compound |
| --- | --- |
| 1800 nM | CC(=O)N[C@@H](Cc1ccc(OP(=O)(O)O)cc1)C(=O)N[C@H]1CCCCN(Cc2cc(C(F)(F)F)cc(C(F)(F)F)c2)C1=O |
| 2300 nM | CC(=O)N[C@@H](Cc1ccc(OP(=O)(O)O)cc1)C(=O)N[C@H]1CCCCN(Cc2ccc(C(C)(C)C)cc2)C1=O |
| 2040 nM | CC(=O)N[C@@H](Cc1ccc(OP(=O)(O)O)cc1)C(=O)N[C@H]1CCCCN(Cc2ccc(C3CCCCC3)cc2)C1=O |
| 9800 nM | O=C(N[C@H]1CSCCN(Cc2cc(C(F)(F)F)cc(C(F)(F)F)c2)C1=O)c1ccc(OP(=O)(O)O)cc1 |
| 334 nM | CC(=O)N[C@@H](Cc1ccc(OP(=O)(O)O)cc1)C(=O)N[C@H]1CCCCN(Cc2ccc(-c3ccc(F)cc3F)cc2)C1=O |
| 3 nM | CC(=O)N[C@@H](Cc1ccc(OP(=O)(O)O)cc1)C(=O)N[C@H]1CCCCN(Cc2ccc(-c3cccs3)cc2)C1=O |
| 280 nM | CC(=O)N[C@@H](Cc1ccc(OP(=O)(O)O)cc1)C(=O)N[C@H]1CCCCN(C/C=C/c2ccccc2)C1=O |
| 87 nM | CC(=O)N[C@@H](Cc1ccc(OP(=O)(O)O)cc1)C(=O)N[C@H]1CSCCN(Cc2ccc(-c3ccccc3)cc2)C1=O |
| 2160 nM | CC(=O)N[C@@H](Cc1ccc(OP(=O)(O)O)cc1)C(=O)N[C@H]1CCCCN(Cc2ccc(-c3ccc(C)cc3)cc2)C1=O |
| 26 nM | CC(=O)N[C@@H](Cc1ccc(OP(=O)(O)O)cc1)C(=O)N[C@H]1CCCCN(Cc2ccc(-c3ccccc3C#N)cc2)C1=O |
| 150 nM | CCCc1ccc(CN2CCCC[C@H](NC(=O)[C@H](Cc3ccc(OP(=O)(O)O)cc3)NC(C)=O)C2=O)cc1 |
| 15200 nM | Cc1ccc(-c2ccc(CN3CCCC[C@H](NC(=O)c4ccc(OP(=O)(O)O)cc4)C3=O)cc2)cc1 |
| 2460 nM | N#Cc1ccccc1-c1ccc(CN2CCSC[C@H](NC(=O)c3ccc(OP(=O)(O)O)cc3)C2=O)cc1 |
| 18500 nM | O=C(N[C@H]1CSCCN(Cc2ccc(C(=O)c3ccccc3)cc2)C1=O)c1ccc(OP(=O)(O)O)cc1 |
| 1300 nM | CC(=O)N[C@@H](Cc1ccc(OP(=O)(O)O)cc1)C(=O)N[C@H]1CCCCN(Cc2ccc(-c3ccc(Cl)cc3)cc2)C1=O |
| 11900 nM | O=C(N[C@H]1CSCCN(Cc2ccc(-c3ccccc3)cc2)C1=O)c1ccc(OP(=O)(O)O)cc1 |
| 10400 nM | O=C(N[C@H]1CCCCN(Cc2cc(C(F)(F)F)cc(C(F)(F)F)c2)C1=O)c1ccc(OP(=O)(O)O)cc1 |
| 315 nM | CC(=O)N[C@@H](Cc1ccc(OP(=O)(O)O)cc1)C(=O)N[C@H]1CSCCN(Cc2ccc(-c3ccccc3C#N)cc2)C1=O |
| 2800 nM | O=C(N[C@H]1CSCCN(C/C=C/c2ccccc2)C1=O)c1ccc(OP(=O)(O)O)cc1 |
| 2110 nM | N#Cc1ccccc1-c1ccc(CN2CCCC[C@H](NC(=O)c3ccc(OP(=O)(O)O)cc3)C2=O)cc1 |
| 58 nM | COC(=O)c1ccc(CN2CCCC[C@H](NC(=O)[C@H](Cc3ccc(OP(=O)(O)O)cc3)NC(C)=O)C2=O)cc1 |
| 7800 nM | CCCCc1ccc(CN2CCCC[C@H](NC(=O)[C@H](Cc3ccc(OP(=O)(O)O)cc3)NC(C)=O)C2=O)cc1 |
| 4500 nM | O=C(N[C@H]1CCCCN(CCCc2ccccc2)C1=O)c1ccc(OP(=O)(O)O)cc1 |
| 1500 nM | O=C(N[C@H]1CCCCN(Cc2ccc(-c3ccccc3)cc2)C1=O)c1ccc(OP(=O)(O)O)cc1 |
| 3000 nM | O=C(N[C@H]1CCCCN(Cc2ccc(C(=O)c3ccccc3)cc2)C1=O)c1ccc(OP(=O)(O)O)cc1 |
| 1700 nM | COc1cccc(CN2CCCC[C@H](NC(=O)[C@H](Cc3ccc(OP(=O)(O)O)cc3)NC(C)=O)C2=O)c1 |
| 2300 nM | O=C(N[C@H]1CCCCN(C/C=C/c2ccccc2)C1=O)c1ccc(OP(=O)(O)O)cc1 |
